Laboratory results published in PubChem BioAssay AID248 (DTP/NCI, 2004).
Where “and” joins values, the source holds several entries; their conditions need not be identical. Identical values can stand only once. Inconclusive results and toxic doses are left out. Cut-off read from the data, not from the text of the source: active = T/C of 150% or more; inactive = T/C below 125%.

System: L1210 leukemia ip in BDF1 mice, survival T/C
Assay: NCI In Vivo Anticancer Drug Screen. Data for tumor model L1210 Leukemia (intraperitoneal) in B6D2F1 (BDF1) mice
Details: endpoint: mean survival time, higher = longer survival
Procedure, shortened: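 Antitumor effect is assessed in tumor-bearing animals. Survival in the compound arm is compared with a vehicle-dosed control arm and expressed as their quotient.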

[1] = dose: 100.0 mg/kg/injection, schedule: Q01DX001 (ip), vehicle: carboxymethylcellulose (CMC)
[2] = dose: 200.0 mg/kg/injection, schedule: Q01DX001 (ip), vehicle: carboxymethylcellulose (CMC)
[3] = dose: 400.0 mg/kg/injection, schedule: Q01DX001 (ip), vehicle: carboxymethylcellulose (CMC)
[4] = dose: 50.0 mg/kg/injection, schedule: Q01DX001 (ip), vehicle: saline
[5] = dose: 100.0 mg/kg/injection, schedule: Q01DX001 (ip), vehicle: saline
[6] = dose: 200.0 mg/kg/injection, schedule: Q01DX001 (ip), vehicle: saline
[7] = dose: 400.0 mg/kg/injection, schedule: Q01DX001 (ip), vehicle: saline

Measured: T/C

CC(N)C(=O)NC(CC(N)=O)C(=O)O (stereo not given)
inactive: dose: 25.0 mg/kg/injection, schedule: Q04DX002 (ip), vehicle: saline 95 % of control | dose: 50.0 mg/kg/injection, schedule: Q01DX001 (ip), vehicle: carboxymethylcellulose (CMC) 97 % of control | dose: 50.0 mg/kg/injection, schedule: Q04DX002 (ip), vehicle: saline 100 % of control | [1] 97 % of control | dose: 100.0 mg/kg/injection, schedule: Q04DX002 (ip), vehicle: saline 106 % of control | [2] 97 % of control | [3] 95 % of control

CCC/C(=N/OC(=O)N(C)C)c1ccccc1
inactive: [1] 97 % of control | [2] 98 % of control | [3] 101 % of control

O=S(=O)(N/C(=C(/c1ccccc1)N(c1ccccc1)S(=O)(=O)c1ccccc1)c1ccccc1)c1ccccc1
inactive: dose: 75.0 mg/kg/injection, schedule: Q01DX001 (ip), vehicle: Klucel (hydroxypropylcellulose) (HPC) 90 % of control | dose: 150.0 mg/kg/injection, schedule: Q01DX001 (ip), vehicle: Klucel (hydroxypropylcellulose) (HPC) 87 % of control | dose: 300.0 mg/kg/injection, schedule: Q01DX001 (ip), vehicle: Klucel (hydroxypropylcellulose) (HPC) 90 % of control

COc1ccc(C(C)=O)cc1
inactive: dose: 100.0 mg/kg/injection, schedule: Q04DX002 (ip), vehicle: saline + alcohol 92 % of control | dose: 200.0 mg/kg/injection, schedule: Q04DX002 (ip), vehicle: saline + alcohol 96 % of control | dose: 400.0 mg/kg/injection, schedule: Q04DX002 (ip), vehicle: saline + alcohol 92 % of control

CCC(CO)N=Cc1ccccc1O.CCC(CO)N=Cc1ccccc1O.[Ni] (stereo not given)
inactive: dose: 9.5 mg/kg/injection, schedule: Q01DX001 (ip), vehicle: other 102 % of control | dose: 19.0 mg/kg/injection, schedule: Q01DX001 (ip), vehicle: other 102 % of control | dose: 38.0 mg/kg/injection, schedule: Q01DX001 (ip), vehicle: other 94 % of control | dose: 75.0 mg/kg/injection, schedule: Q01DX001 (ip), vehicle: other 111 % of control

CC1(C)c2ccccc2N(CCCN2CCCCC2)c2ccccc21
inactive: dose: 9.0 mg/kg/injection, schedule: Q01DX001 (ip), vehicle: water 101 % of control | dose: 18.0 mg/kg/injection, schedule: Q01DX001 (ip), vehicle: water 93 % of control | dose: 36.0 mg/kg/injection, schedule: Q01DX001 (ip), vehicle: water 101 % of control | dose: 50.0 mg/kg/injection, schedule: Q01DX001 (ip), vehicle: water 91 % of control | dose: 100.0 mg/kg/injection, schedule: Q01DX001 (ip), vehicle: water 91 % of control | dose: 200.0 mg/kg/injection, schedule: Q01DX001 (ip), vehicle: water 100 % of control

NC(=O)CNC(=O)CN1C(=O)c2ccccc2C1=O
inactive: dose: 100.0 mg/kg/injection, schedule: Q01DX001 (ip), vehicle: other 103 % of control | dose: 200.0 mg/kg/injection, schedule: Q01DX001 (ip), vehicle: other 103 % of control | dose: 400.0 mg/kg/injection, schedule: Q01DX001 (ip), vehicle: other 103 % of control

COC1=CC(=O)CC(C)C12Oc1c(Cl)c(OC)cc(OC)c1C2=O (stereo not given)
inactive: dose: 5.0 mg/kg/injection, schedule: Q## X008 (ip), vehicle: other 103 % of control | dose: 10.0 mg/kg/injection, schedule: Q## X008 (ip), vehicle: other 91 % of control | dose: 20.0 mg/kg/injection, schedule: Q## X008 (ip), vehicle: other 94 % of control | dose: 40.0 mg/kg/injection, schedule: Q## X008 (ip), vehicle: other 91 % of control | dose: 50.0 mg/kg/injection, schedule: Q## X024 (ip), vehicle: other 111 % of control | dose: 80.0 mg/kg/injection, schedule: Q## X008 (ip), vehicle: other 88 % of control | dose: 100.0 mg/kg/injection, schedule: Q## X024 (ip), vehicle: other 100 % of control | dose: 200.0 mg/kg/injection, schedule: Q## X024 (ip), vehicle: other 100 % of control | dose: 400.0 mg/kg/injection, schedule: Q## X024 (ip), vehicle: other 95 % of control | dose: 800.0 mg/kg/injection, schedule: Q## X024 (ip), vehicle: other 100 % of control

O=C1OC(=O)C2=C1C1C3C=CCC3C2N2C=CC=CC12 (stereo not given)
inactive: dose: 50.0 mg/kg/injection, schedule: Q01DX009 (ip), vehicle: Klucel (hydroxypropylcellulose) (HPC) 96 % of control | dose: 100.0 mg/kg/injection, schedule: Q01DX009 (ip), vehicle: Klucel (hydroxypropylcellulose) (HPC) 103 % of control | dose: 200.0 mg/kg/injection, schedule: Q01DX009 (ip), vehicle: Klucel (hydroxypropylcellulose) (HPC) 103 % of control

OC(Cc1ccccc1)c1ccccc1 (stereo not given)
inactive: [4] 100 % of control | [5] 100 % of control | dose: 100.0 mg/kg/injection, schedule: Q01DX009 (ip), vehicle: saline with Tween-80 89 % of control | [6] 93 % of control | dose: 200.0 mg/kg/injection, schedule: Q01DX009 (ip), vehicle: saline with Tween-80 98 % of control | [7] 93 % of control | dose: 400.0 mg/kg/injection, schedule: Q01DX009 (ip), vehicle: saline with Tween-80 95 % of control

CC1c2ccccc2C(C)c2c1cc(F)c1ccccc21 (stereo not given)
inactive: dose: 100.0 mg/kg/injection, schedule: Q04DX002 (ip), vehicle: other 115 % of control | dose: 200.0 mg/kg/injection, schedule: Q04DX002 (ip), vehicle: other 93 % of control | dose: 400.0 mg/kg/injection, schedule: Q04DX002 (ip), vehicle: other 101 % of control

COC(C)=C1c2ccccc2-c2ccccc21
inactive: dose: 100.0 mg/kg/injection, schedule: Q01DX001 (ip), vehicle: Klucel (hydroxypropylcellulose) (HPC) 98 % of control | dose: 200.0 mg/kg/injection, schedule: Q01DX001 (ip), vehicle: Klucel (hydroxypropylcellulose) (HPC) 99 % of control | dose: 400.0 mg/kg/injection, schedule: Q01DX001 (ip), vehicle: Klucel (hydroxypropylcellulose) (HPC) 94 % of control

O=C(O)CCCCCCCCCCCCCCC(=O)O
inactive: dose: 100.0 mg/kg/injection, schedule: Q04DX002 (ip), vehicle: Klucel (hydroxypropylcellulose) (HPC) 93 % of control and 97 % of control | dose: 200.0 mg/kg/injection, schedule: Q04DX002 (ip), vehicle: Klucel (hydroxypropylcellulose) (HPC) 101 % of control | dose: 400.0 mg/kg/injection, schedule: Q04DX002 (ip), vehicle: Klucel (hydroxypropylcellulose) (HPC) 93 % of control and 101 % of control

Nc1nc(-c2ccccc2)c(CCCNc2ccc(C(=O)NC(CCC(=O)O)C(=O)O)cc2)c(=O)[nH]1 (stereo not given)
inactive: [4] 98 % of control | [5] 104 % of control | dose: 100.0 mg/kg/injection, schedule: Q04DX003 (ip), vehicle: saline with Tween-80 106 % of control | [6] 98 % of control | dose: 200.0 mg/kg/injection, schedule: Q04DX003 (ip), vehicle: saline with Tween-80 100 % of control | [7] 101 % of control | dose: 400.0 mg/kg/injection, schedule: Q04DX003 (ip), vehicle: saline with Tween-80 89 % of control

COC(=O)c1ccc2cc(C(=O)OC)ccc2c1
inactive: dose: 50.0 mg/kg/injection, schedule: Q04DX003 (ip), vehicle: Klucel (hydroxypropylcellulose) (HPC) 105 % of control | dose: 100.0 mg/kg/injection, schedule: Q04DX003 (ip), vehicle: Klucel (hydroxypropylcellulose) (HPC) 105 % of control | dose: 200.0 mg/kg/injection, schedule: Q04DX003 (ip), vehicle: Klucel (hydroxypropylcellulose) (HPC) 101 % of control

COc1cc(Cl)c(CC(=O)c2c[nH]c3ccccc23)cc1OC
inactive: [4] 96 % of control | [5] 93 % of control | dose: 100.0 mg/kg/injection, schedule: Q01DX009 (ip), vehicle: saline 95 % of control | [6] 96 % of control | dose: 200.0 mg/kg/injection, schedule: Q01DX009 (ip), vehicle: saline 98 % of control | [7] 96 % of control | dose: 400.0 mg/kg/injection, schedule: Q01DX009 (ip), vehicle: saline 101 % of control
